Measurements taken from patent US4117139A, “Medicated compound for treating allergic diseases” (priority 1973, dated 1978).
Where a name gives a salt, the structure may show the parent alone.

Legend:
[1] = tested on: anaphylactic response caused by ovalbumin; assay: Anaphylactic response to ovalbumin aerosol in actively sensibilized guinea pigs; details: 25 mg/kg intraperitoneally and 50 mg/kg in stomach; 25% ovalbumin aerosol, 10 minutes
[2] = tested on: bronchospasm caused by serotonine (5-hydroxytriptamine); assay: Bronchospasm caused by serotonine; details: in vivo
[3] = tested on: hypotensive activity of intravenously injected histamine; assay: Hypotensive activity of intravenous histamine in narcotized cats; type: in vivo; details: 0.2 to 0.5 mg/kg, histamine 1 mcg/kg i.v.
Acute toxicity in rats = details: rat, in vivo, po, in the stomach
central nervous system [4] = assay: Central nervous system effects in test animals; type: in vivo; details: mice, rats, rabbits, cats; different modes of administration
[5] = tested on: ophthalmic response (hyperemia and chemosis) caused by histamine; assay: Ophthalmic response to histamine instilled into conjunctival sac of guinea pigs; type: in vivo
bronchial asthma = assay: Clinical test: bronchial asthma; type: in vivo; details: patients
Excerpt: (§1) The medicated compound of the present invention was clinically tested on 250 patients aging from 18 to 70 years suffering from allergic diseases for a period of from 3 months to 10 years, and treated with various anti-histamine medicines.
(§2) The medicated compound of the present invention was used for the treatment of acute and chronic urticaria, hay fever, Quincke's oedema, dermal itch, chronic eczema, polysyndromic phenomena of intolerance (arthropathy, eosinophilia, temperature increase), dermatoblepharoconjunctivitis, and bronchial-asthma.

[6] = tested on: foot edema caused by dextrane; assay: Rat foot edema caused by subplantar dextrane; type: in vivo, rats; details: 25 mg/kg intraperitoneally and 50 mg/kg in the stomach; dextrane 0.1 ml of 6% solution; P over 0.05
Excerpt: (§3) The medicated compound of the present invention irrespectively of the medication mode exerts anti-edemic antianaphylactic action.

allergic diseases = assay: Clinical test on patients suffering from allergic diseases; type: in vivo
Excerpt: as §1
The treatment with the medicated compound of the present invention was effected in allergological surgeries under ambulatory and stationary conditions.
The majority of the stationary patients were hospitalized with serious, or lasting allergic responses and frequently with accompanying diseases of the heart-vascular system, and digestive tract.
as §2
(§4) In the case of dermatoblepharonconjunctivitis and some other allergic ophthalmic diseases, the medicated compound of the present invention was administered per os (one tablet of 0.025 g 3 to 4 times per day).
The medicated compound of the present invention was used individually (without an additional desensibilizing therapy) per os in a dose of from 3 to 6 tablets (0.025 g each) per day, usually directed after eating.

[7] = tested on: dermatoblepharonconjunctivitis and some other allergic ophthalmic diseases; assay: Clinical test: dermatoblepharoconjunctivitis and other allergic ophthalmic diseases; type: in vivo, patients
Procedure: as §1, §4

[8] = Embryotoxicity / teratogenicity in pregnant rats; type: in vivo; details: per os, single doses 3/4 of LD50, various periods of pregnancy
[9] = tested on: bronchoconstricting action of histamine; assay: Histamine bronchoconstriction in narcotized guinea pigs (Concette-Rossler method); type: in vivo; details: intravenous, 0.1 to 0.2 mg/kg
Excerpt: As to the mechanism of its action, the medicated compound of the present invention represents an antagonist to histamine liberated in antigen-antibody reactions.

central nervous system [10] = assay: Depressive effect on the central nervous system; details: in vivo
Excerpt: The majority of modern anti-histamine medicines reveal a strong sedative effect, whereby their administration is substantially limited in the ambulatory treatment, especially in the case of persons engaged in intellectual pursuits, or persons whose occupation requires quick physical and psychic responses, e.g. drivers of transport vehicles.

[11] = tested on: bronchospasm caused by acetylcholine; assay: Bronchospasm caused by acetylcholine; details: in vivo
[12] = tested on: general state and behaviour of animals; assay: General state and behaviour after single medication; type: in vivo, mice, rats, guinea pigs, cats and dogs; details: different modes, versus dimedrol and diprasine
[13] = tested on: heart-vascular system, digestive tract, and excretory organs; assay: Pharmacological and toxicological studies: heart-vascular system, digestive tract, excretory organs; details: in vivo
[14] = tested on: chronic aseptic inflammation; assay: Chronic aseptic inflammation by hypodermical implantation of wool balls to rats; type: in vivo; details: hypodermically, 25 mg/kg
[15] = Acute toxicity in guinea pigs; type: in vivo
Acute toxicity in mice = details: mouse, in vivo
Clinical tolerability = type: in vivo, patients
Excerpt: as §1
However, with the patients over 60 years of age, or those weakened by accompanying serious diseases, some cases of a "seductive" effect of the medicated compound of the present invention were noticed.

[16] = Repeated administration to rats; type: in vivo
[17] = tested on: foot edema caused by formalin; assay: Rat foot edema caused by subplantar formalin; type: in vivo, rats; details: 25 mg/kg intraperitoneally and 50 mg/kg in the stomach; formalin 0.2 ml of 2% solution; P over 0.05
Excerpt: as §3

[18] = tested on: intoxication caused by histamine aerosol; assay: Histamine aerosol intoxication in guinea pigs; type: in vivo; details: in the stomach, 30 to 50 mg/kg, spraying 300 seconds
[19] = tested on: foot edema caused by serotonin; assay: Rat foot edema caused by subplantar serotonin; type: in vivo, rats
Excerpt: as §3

[20] = Acute toxicity, diprasine, intravenous; details: intravenously
[21] = rats, in the stomach, 22 times, 1/4 of LD50

For `OC(c1ccccc1)(c1ccccc1)C1CN2CCC1CC2` (centres unmarked) [(quinuclidyl-3)-diphenylcarbinol hydrochloride], which antiallergic effect [1] is on record?
Its antiallergic effect is “clearly pronounced antiallergic effect”.

What about the “signs of anaphylactic response / latent period” value [1] of the same compound?
The value was “increasing the latent period, or completely inhibiting signs of anaphylactic response”.

And the “influence on bronchospasm caused by serotonine” value [2]?
The value was “only a slight influence”.

What about the “hypotensive activity of histamine” value [3] of the same compound?
The value was “prevents hypotensive activity”.

What about the LD50 (Acute toxicity in rats) of the same compound?
The LD50 was 440 mg/kg.

What about the “action of various hypnotics” value (central nervous system [4]) of the same compound?
The value was “does not extend the action of various hypnotics”.

What about the “influence on latent period of conditioned reflexes” value (central nervous system [4]) of the same compound?
The value was “nor has it any influence”.

What about the “influence on spontaneous motor activity” value (central nervous system [4]) of the same compound?
The value was “no influence”.

And the “influence on summation ability of the central nervous system” value (central nervous system [4])?
Its value is “no influence”.

What about the “ophthalmic response (hyperemia and chemosis)” value ([5]; into the stomach, 50 mg/kg, 2% solution of histamine) of the same compound?
Its value is “prevents or substantially reduces ophthalmic response”.

What about the “efficacy in bronchial asthma” value (bronchial asthma) of the same compound?
The value was “inefficient”.

And the “reduction of foot edema of hind limb, dextrane” value [6]?
The value was “more than 2 times”.

What about the “efficacy in allergic diseases” value (allergic diseases; acute and chronic urticaria, hay fever, vasomotor rhinitis, Quincke's oedema, itching dermatosis, chronic eczema, polysyndromic phenomena of intolerance) of the same compound?
The value was “highly efficient”.

And the “efficacy in patients with developed adaptation to other anti-histamine medicines” value (allergic diseases; human, in vivo)?
Its value is “efficient”.

What about the “time to better condition of patients (dermal eruptions and itching reduced)” value (allergic diseases; per os, 3 to 6 tablets (0.025 g each) per day) of the same compound?
Its value is 3 days.

And the “curing action in allergic ophthalmic diseases” value ([7]; per os, one tablet of 0.025 g 3 to 4 times per day)?
Its value is “satisfactory curing action”.

What about the “therapeutic effect with corticosteroids” value ([7]; simultaneous administration of corticosteroids (dexamethazone)) of the same compound?
The value was “therapeutic effect was enhanced”.

What about the “embriotoxic or teratogenic effects” value [8] of the same compound?
Its value is “does not exert any embriotoxic or teratogenic effects”.

And the “bronchoconstricting action of histamine” value [9]?
The value was “weakens, or inhibits the bronchoconstricting action of histamine”.

And the “depressive effect on the central nervous system” value (central nervous system [10])?
The value was “does not exert a depressive effect on the central nervous system”.

And the “influence on bronchospasm caused by acetylcholine” value [11]?
Its value is “only a slight influence”.

What about the “influence on general state and behaviour of animals” value [12] of the same compound?
The value was “to a considerably lesser extent than dimedrol (diphenhydramine) and especially diprasine (promethasine)”.

What about the “influence on heart-vascular system, digestive tract, and excretory organs” value [13] of the same compound?
Its value is “only a relatively slight influence”.

What about the anti-inflammation effect [14] of the same compound?
The anti-inflammation effect was “pronounced anti-inflammationeffect”.

And the “anti-inflammation effect relative to dimedrol” value [14]?
The value was “superior over dimedrol”.

And the absolute lethal dose [15]?
Its absolute lethal dose is 500 mg/kg.

And the LD50 (Acute toxicity in mice; iv)?
Its LD50 is 62 mg/kg.

What about the LD50 (Acute toxicity in mice; po) of the same compound?
The LD50 was 370 mg/kg.

What about the tolerability (Clinical tolerability; human, in vivo) of the same compound?
Its tolerability is “well tolerated”.

What about the “"seductive" effect” value (Clinical tolerability; patients over 60 years of age or weakened by accompanying serious diseases) of the same compound?
The value was “some cases”.

What about the discomfort (Clinical tolerability; patients with accompanying serious diseases of the digestive tract) of the same compound?
Its discomfort is “short-time phenomena of discomfort are possible”.

And the “time to disappearance of discomfort” value (Clinical tolerability; patients with accompanying serious diseases of the digestive tract, without cancelling or reducing dosage)?
The value was 1 to 2 days.

And the “influence on general state and behaviour, peripheral blood, biochemical characteristics of blood and urina” value [16, 21]?
Its value is “no essential influence”.

And the “pathomorphological changes in internal organs” value [16, 21]?
The value was “no pathomorphological changes in internal organs”.

And the “tolerance of repeated administration” value ([16]; relatively high doses)?
The value was “well tolerated by the test animals”.

What about the “reduction of foot edema of hind limb, formalin” value [17] of the same compound?
The value was “more than 2 times”.

What about the “protection from intoxication (dispnea, apnoea, clono-tonic spasm)” value [18] of the same compound?
Its value is “completely protects the animals”.

What about the “reduction of foot edema of hind limb, serotonin” value ([19]; 25 mg/kg intraperitoneally and 50 mg/kg in the stomach, serotonin 5 mcg, P over 0.05) of the same compound?
Its value is “more than 2 times”.

What about the “anti-edemic efficiency relative to dimedrol and diprasine” value ([19]; rat foot edema (serotonin, formalin, dextrane)) of the same compound?
The value was “more efficient than dimedrol, and more active than diprasine (promethasine)”.

With `CN(C)CCOC(c1ccccc1)c1ccccc1` [dimedrol, diphenhydramine hydrochloride, reference compound] as the compound, how does the “effect on ophthalmic response” value ([5]; similar experiments, compared with the medicated compound) read?
Its value is “much less pronounced”.

Which “dose resulting in the death of half of the animals” value [20] does the source give for `CC(CN1c2ccccc2Sc2ccccc21)N(C)C` (centres unmarked) [diprasine (promethasine), promethasine] here?
The value was 25 mg/kg.
